The values below come from US5344926A, “Process for producing staurosporine derivatives” (Kyowa Hakko Kogyo Co., Ltd., priority 1992, dated 1994).

In brackets after ≈: the same amount, converted by molar mass. Several values for one entry are separate records, joined by “and”; a condition that tells them apart may be missing. Equal entries are not always repeated.

One series relates to Protein kinase C. Nature of the series: Protein Kinase C Inhibitory Activity (crude enzyme partially purified from rat brain). The following applies: for selective inhibitory activity on protein kinase C, compared with UCN-01: PKC vs PKA; for IC50 PKC: pH 7.5, 30° C., 3 minutes; for PKA/PKC: ratio of IC50 PKA to IC50 PKC. The method, then: (1) Protein Kinase C Inhibitory Activity
Protein kinase C inhibitory activity (PKC) was measured by the method of Kikkawa, et al. (Journal of Biological Chemistry, 257, 13341 (1982)].
That is, 10 μl of a test solution containing UCN-01, Compound No. 1-α or Compound No. 1-β was added to 250 μl of a solution containing 2.5 μmoles of magnesium acetate, 50 μg of Histone Type IIS (manufactured by Sigma Co., Ltd.), 20 μg of phosphatidyl serine, 0.8 μg of diolein, 25 nmoles of CaCl2, 5 μg of crude enzyme (partically purified from rat brain according to the method of Kikkawa, et al.) and 5 μmoles of Tris-hydrochloride buffer (pH 7.5), followed by incubation at 30° C. for 3 minutes. Then, phosphorylation was initiated by addition of 1.25 nmoles of [γ-^32 p]ATP(5 to 10×10^3 cpm/nmole), followed by incubation at 30° C. for 3 minutes. The reaction was stopped by adding 25% trichloroacetic acid (TCA), and the reaction solution was filtered through a cellulose acetate membrane (pore size of 0.45 μm) (manufactured by Toyo Filter Paper Co., Ltd.). After the membrane was washed four times with 5% TCA, radioactivity remaining on the membrane was measured. As a control, the same procedure as above was repeated without addition of the test solution and radioactivity was likewise measured. A concentration of the test solution showing 50% inhibition as compared with the control was expressed as IC50.

In another series the target is T1, Protein kinase A (Bos taurus, UniProt P00517).
T1 construct: partially purified from calf heart; from tissue; host or cells: calf heart, crude enzyme, partially purified
Put plainly: Protein Kinase A Inhibitory Activity (crude enzyme partially purified from calf heart). It is filed as biochemical. The following applies: pH 6.8. As for the experimental part: (2) Protein Kinase A Inhibitory Activity
Protein kinase A inhibitory activity (PKA) was measured according to the method of Kuo, et al. [Biochemistry, 64, 1349 (1969)].
Subsequent procedures were conducted in a manner similar to the case of measuring protein kinase C inhibitory activity described above to determine IC50.

The next series concerns platelets. Nature of the series: Platelet increasing activity in Balb/c mice. The class given is in vivo. The following applies: 20 mg/kg i.p. once a day for 5 days; for Number of platelets, individual mouse: 20 mg/kg; for Number of platelets (mean): mean of six mice. The method, then: Platelet increasing activity of Compound (I-1) was examined. Compound No. 1-α obtained in Example 13 was suspended in 0.3% carboxymethylcellulose aqueous solution containing 5% Tween 80. 0.2 ml of the suspension was intraperitoneally administered to six Balb/c mice (male, aged 7 weeks) at a dosage of 20 mg/kg once a day for 5 days. The blood (20 μl) was collected from the ophthalmic […] at the times, just before the test compound administration (Day 0), the 7th day (Day 7), the 14th day (Day 14), the 17th day (Day 17) and the 28th day (Day 28). The number of platelets was counted by a microcellcounter.

The test system of another series is HeLa S3 cells. Nature of the series: Growth Inhibition Test on HeLa S3 Cells. The class given is cell-based. The following applies: Homo sapiens, 1 h exposure, then 72 h incubation, Neutral Red, read-out: IC50 (cell growth inhibition). The method, then:
Growth Inhibition Test on HeLa S3 Cells
HaLa S3 cells were suspended in an MEM medium containing 10% fetal calf serum and 2 mM glutamine at a concentration of 3×10^4 cells/ml, and 0.1 ml of the cell suspension was put into each well of a 96-well microtiter plate.
After culturing at 37° C. overnight in a carbon dioxide gas incubator, 0.05 ml of a test sample appropriately diluted with the medium was added to each well. The cells were further cultured for one hour in the carbon dioxide gas incubator and the culture supernatant was removed. The residue was washed once with a phosphate buffer saline [PBS(-)] and 0.1 ml of a fresh medium was added to each well, and the cells were further incubated at 37° C. for 72 hours in the carbon dioxide gas incubator. After removal of the supernatant, 0.1 ml of culture medium containing 0.02% Neutral Red was added to each well, and the cells were further incubated at 37° C. for one hour in the carbon dioxide gas incubator to stain the cells. After removal of the culture supernatant, each well was washed once with a physiological saline, and the dye was extracted with 0.001N HCl/30% methanol. Absorbance of the extract at 550 nm was measured with a microplate reader. The cell growth inhibition percentage was calculated according to the following formula from the absorbance of the extract of the cells treated with the test compound in various concentrations and that of intact cells. [formula]
From the cell growth inhibition percentage thus obtained, the concentration of the test compound which inhibits cell growth by 50% (IC50) was determined.

[1] abbreviates: Day 0 (just before administration).

By IC50 is commonly meant the point on the concentration scale where inhibition reaches its midpoint.

For the compound `COC1C(N(C)CCO)CC2OC1(C)n1c3ccccc3c3c4c(c5c6ccccc6n2c5c31)C(=O)NC4O` (stereo not drawn) [Compound No. 1-α], the “selective inhibitory activity on protein kinase C, compared with UCN-01” value in the series with Protein kinase C is “have a selective inhibitory activity on protein kinase C, compared with UCN-01”. At Protein kinase C, the “IC50 PKC” value worked out at 2.2 ng/mL (≈ 4.18 nM). Besides, in the series on Protein kinase C, the PKA/PKC came to 118. Besides, half-maximal inhibition on Protein kinase A (IC50) was put at 494 nM. Also, the “Number of platelets, relative value” in the series on platelets (Day 0 (= 100)) came out at 100%; in the series on platelets (Day 7, relative to Day 0), 156.4%; in the series on platelets (Day 14, relative to Day 0), 139.8%; in the series on platelets (Day 17, relative to Day 0), 146.7%; in the series with platelets (Day 28, relative to Day 0) it was 135.1%. Moreover, the “Number of platelets, individual mouse” value with platelets (setting [1]) is 81.8 and 89.6 and 75.0 and 89.7 and 97.0 and 86.5; in the series with platelets (Day 7), 128.3 and 119.2 and 130.1 and 153.8 and 141.0 and 140.1; with platelets (Day 14) it was 113.7 and 122.5 and 118.8 and 145.9 and 121.2 and 101.7; in the series on platelets (Day 17) it was 115.0 and 113.6 and 111.9 and 159.1 and 137.1 and 125.5; in the series on platelets (Day 28) it was 117.3 and 123.5 and 119.0 and 113.7 and 105.8 and 125.3. Also, the “Number of platelets (mean)” value came to 86.6 in the series with platelets (setting [1]); 135.4 in the series on platelets (Day 7); 121.1 with platelets (Day 14); 127.0 in the series with platelets (Day 17); 117.4 in the series on platelets (Day 28).

Take `COC1C(N(C)CCO)CC2OC1(C)n1c3ccccc3c3c4c(c5c6ccccc6n2c5c31)C(=O)NC4O` (stereo not drawn) [Compound No. 1-β]: in the series with Protein kinase C, the “selective inhibitory activity on protein kinase C, compared with UCN-01” value is listed as “have a selective inhibitory activity on protein kinase C, compared with UCN-01”; the “IC50 PKC” value came out at 19 ng/mL (≈ 36.1 nM); the PKA/PKC was 20. The compound further gave an IC50 on Protein kinase A of 703 nM.

Regarding `COC1C(N(C)CCO)CC2OC1(C)n1c3ccccc3c3c4c(c5c6ccccc6n2c5c31)C(=O)NC4O` (stereo not drawn) [Compound No. 1], the concentration for half-maximal inhibition (IC50) in the series with HeLa S3 cells was determined as 2200 nM.

As to `COC1C(N(C)CC(O)CO)CC2OC1(C)n1c3ccccc3c3c4c(c5c6ccccc6n2c5c31)C(=O)NC4O` (stereo not drawn) [Compound No. 2], in the series on HeLa S3 cells, the 50% inhibitory concentration (IC50) was 1900 nM.

Consider `COC1C(N(C)CCCC(=O)O)CC2OC1(C)n1c3ccccc3c3c4c(c5c6ccccc6n2c5c31)C(=O)NC4O` (stereo not drawn) [Compound No. 3], for which, in the series on HeLa S3 cells, the IC50 was 4600 nM.

For `COC1C(N(C)C(=O)CN2CCOCC2)CC2OC1(C)n1c3ccccc3c3c4c(c5c6ccccc6n2c5c31)C(=O)NC4O` (stereo not drawn) [Compound No. 6], the 50% inhibitory concentration (IC50) with HeLa S3 cells turned out to be 2200 nM.

`COC1C(N(C)C(=O)CN(C)C)CC2OC1(C)n1c3ccccc3c3c4c(c5c6ccccc6n2c5c31)C(=O)NC4O` (stereo not drawn) [Compound No. 7]: the IC50 in the series on HeLa S3 cells came out at 1500 nM.

With `CN[C@@H]1C[C@H]2O[C@@](C)([C@@H]1OC)n1c3ccccc3c3c4c(c5c6ccccc6n2c5c31)C(=O)N[C@@H]4O` [UCN-01, reference compound], on Protein kinase C, the “IC50 PKC” value stood at 2 ng/mL (≈ 4.14 nM) and the PKA/PKC stood at 10.
